Reference: ChEMBL document CHEMBL1201862, “PubChem BioAssay data set” (2004)
Activity calls are given as the source filed them.

What was measured:
[1] = target: Cytochrome P450 2D6 (Homo sapiens, UniProt P10635); experiment: qHTS Assay for Inhibitors and Substrates of Cytochrome P450 2D6. [Related pubchem assays: 410 ]; format: ADME; conditions: read-out: Potency
[2] = target: C-C chemokine receptor type 6 (Homo sapiens, UniProt P51684); experiment: antagonism of CCR6 beta-arrestin recruitment – cell-based, luminescent beta-arrestin readout, dose response (AID 504728); format: functional
C-C chemokine receptor type 6, sequence (P51684 whole entry): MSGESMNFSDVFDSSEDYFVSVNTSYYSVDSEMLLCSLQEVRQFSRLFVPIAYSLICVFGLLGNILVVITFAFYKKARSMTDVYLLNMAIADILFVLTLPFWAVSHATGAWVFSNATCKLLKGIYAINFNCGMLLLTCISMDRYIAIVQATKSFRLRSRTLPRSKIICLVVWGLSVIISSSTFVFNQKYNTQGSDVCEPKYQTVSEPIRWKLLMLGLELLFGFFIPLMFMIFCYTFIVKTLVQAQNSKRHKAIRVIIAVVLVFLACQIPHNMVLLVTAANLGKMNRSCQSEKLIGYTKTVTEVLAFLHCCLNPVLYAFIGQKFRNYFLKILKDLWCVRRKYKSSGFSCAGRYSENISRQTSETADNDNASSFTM

[3] = target: Beta-galactosidase (Escherichia coli, UniProt Q8VNN2); experiment: detection-enzyme interference by beta-gal modulators – biochemical, E. coli enzyme, set 3, artefact control for CCR6 antagonist project, dose response (AID 504712); format: functional
Beta-galactosidase, sequence (Q8VNN2 whole entry): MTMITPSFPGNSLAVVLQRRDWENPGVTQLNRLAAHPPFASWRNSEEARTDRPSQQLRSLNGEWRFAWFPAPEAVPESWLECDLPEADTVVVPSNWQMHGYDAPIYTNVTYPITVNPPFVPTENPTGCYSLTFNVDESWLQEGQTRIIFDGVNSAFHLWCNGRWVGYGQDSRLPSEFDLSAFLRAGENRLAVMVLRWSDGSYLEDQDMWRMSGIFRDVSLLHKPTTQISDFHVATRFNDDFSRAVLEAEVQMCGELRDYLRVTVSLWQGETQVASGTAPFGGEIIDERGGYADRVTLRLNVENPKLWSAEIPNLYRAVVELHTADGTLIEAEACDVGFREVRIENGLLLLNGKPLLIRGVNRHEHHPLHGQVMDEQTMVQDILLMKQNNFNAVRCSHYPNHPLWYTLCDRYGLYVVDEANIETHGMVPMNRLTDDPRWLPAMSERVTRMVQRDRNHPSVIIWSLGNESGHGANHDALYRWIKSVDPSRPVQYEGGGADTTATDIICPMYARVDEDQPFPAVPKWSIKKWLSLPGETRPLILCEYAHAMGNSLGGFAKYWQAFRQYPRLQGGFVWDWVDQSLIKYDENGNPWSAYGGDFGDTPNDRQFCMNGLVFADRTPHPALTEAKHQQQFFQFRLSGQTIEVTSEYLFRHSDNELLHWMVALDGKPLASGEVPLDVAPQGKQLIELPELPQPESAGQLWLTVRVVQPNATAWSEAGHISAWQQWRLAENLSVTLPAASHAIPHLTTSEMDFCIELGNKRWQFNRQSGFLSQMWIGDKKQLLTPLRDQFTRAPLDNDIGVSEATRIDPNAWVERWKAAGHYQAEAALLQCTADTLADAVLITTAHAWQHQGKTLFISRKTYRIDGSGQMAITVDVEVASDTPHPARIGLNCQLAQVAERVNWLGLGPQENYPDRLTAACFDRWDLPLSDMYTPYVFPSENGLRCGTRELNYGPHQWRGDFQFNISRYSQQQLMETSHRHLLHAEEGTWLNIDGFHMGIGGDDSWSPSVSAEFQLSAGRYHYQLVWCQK

[4] = A Cell Based Secondary Assay To Explore Cytotoxicity of Compounds that Sensitize Mycobacterium Tuberculosis to Beta-Lactam Antibiotics.; format: functional
[5] = target: T1, Alkaline phosphatase, tissue-nonspecific isozyme (Homo sapiens, UniProt P05186)
T1 sequence (P05186 whole entry): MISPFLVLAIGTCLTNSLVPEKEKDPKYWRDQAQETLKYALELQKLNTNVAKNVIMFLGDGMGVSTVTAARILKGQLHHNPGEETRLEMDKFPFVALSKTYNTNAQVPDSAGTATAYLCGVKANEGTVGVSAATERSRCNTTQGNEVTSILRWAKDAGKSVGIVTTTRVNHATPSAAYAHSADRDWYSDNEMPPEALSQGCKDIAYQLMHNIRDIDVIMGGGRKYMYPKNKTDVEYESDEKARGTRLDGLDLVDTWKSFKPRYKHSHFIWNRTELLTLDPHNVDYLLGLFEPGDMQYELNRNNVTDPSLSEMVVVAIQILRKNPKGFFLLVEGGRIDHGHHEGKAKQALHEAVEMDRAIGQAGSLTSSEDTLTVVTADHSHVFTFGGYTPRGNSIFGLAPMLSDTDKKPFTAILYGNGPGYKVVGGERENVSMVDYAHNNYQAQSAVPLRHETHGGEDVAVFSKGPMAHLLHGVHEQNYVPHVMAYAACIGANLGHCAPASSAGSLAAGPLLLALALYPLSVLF

[6] = viability loss in THP-1 monocytes – THP-1 cells, cytotoxicity control for Vif-APOBEC3G degradation inhibitor project, dose response (AID 1117359); format: functional; conditions: THP-1
[7] = target: Estrogen receptor (Homo sapiens, UniProt P03372); experiment: ERα coactivator recruitment enhancers – biochemical, TR-FRET, ERα LBD, dose response (AID 737)
Estrogen receptor, sequence (P03372 whole entry, the tested form may be a part): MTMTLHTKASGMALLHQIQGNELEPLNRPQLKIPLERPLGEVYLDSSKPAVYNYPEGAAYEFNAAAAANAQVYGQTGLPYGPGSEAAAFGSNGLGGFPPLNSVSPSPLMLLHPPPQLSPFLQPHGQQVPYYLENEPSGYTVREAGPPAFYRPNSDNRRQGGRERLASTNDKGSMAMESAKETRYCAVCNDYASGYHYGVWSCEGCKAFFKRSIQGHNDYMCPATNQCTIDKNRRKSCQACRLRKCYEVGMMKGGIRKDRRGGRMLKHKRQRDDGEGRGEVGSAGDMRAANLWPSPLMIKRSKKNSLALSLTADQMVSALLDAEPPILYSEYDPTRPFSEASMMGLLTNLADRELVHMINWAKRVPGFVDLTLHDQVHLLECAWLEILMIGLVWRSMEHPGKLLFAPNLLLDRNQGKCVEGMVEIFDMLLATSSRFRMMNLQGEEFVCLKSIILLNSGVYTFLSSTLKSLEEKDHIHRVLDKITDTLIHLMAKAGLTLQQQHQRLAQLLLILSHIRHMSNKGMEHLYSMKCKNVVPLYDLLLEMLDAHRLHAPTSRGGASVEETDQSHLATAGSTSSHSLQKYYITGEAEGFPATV

[8] = target: T1, Alkaline phosphatase, tissue-nonspecific isozyme; experiment: potency against alkaline phosphatase TNAP – biochemical, luminescent, dose response, SAR follow-up (AID 1056)
[9] = target: Alkaline phosphatase, placental type (Homo sapiens, UniProt P05187); experiment: human placental alkaline phosphatase inhibition – biochemical, luminescence, confirmation (AID 1512); format: functional
Alkaline phosphatase, placental type, sequence (P05187 whole entry): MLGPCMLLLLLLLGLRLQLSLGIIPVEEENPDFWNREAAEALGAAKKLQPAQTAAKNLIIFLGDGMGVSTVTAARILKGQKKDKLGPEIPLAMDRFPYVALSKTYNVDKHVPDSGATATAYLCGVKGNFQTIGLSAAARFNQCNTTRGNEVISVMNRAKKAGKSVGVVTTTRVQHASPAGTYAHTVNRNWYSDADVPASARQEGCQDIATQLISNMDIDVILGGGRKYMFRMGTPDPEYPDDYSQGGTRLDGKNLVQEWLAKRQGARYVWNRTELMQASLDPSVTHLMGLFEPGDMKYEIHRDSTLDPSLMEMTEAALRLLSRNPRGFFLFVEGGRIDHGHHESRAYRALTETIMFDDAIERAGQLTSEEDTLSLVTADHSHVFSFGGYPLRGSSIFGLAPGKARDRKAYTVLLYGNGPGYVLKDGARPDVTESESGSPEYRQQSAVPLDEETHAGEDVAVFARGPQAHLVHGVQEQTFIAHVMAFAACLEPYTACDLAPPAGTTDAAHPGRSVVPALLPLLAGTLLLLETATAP

[10] = target: T2, Caspase-3 (Homo sapiens, UniProt P42574); experiment: activation of caspase-3 zymogen – biochemical, absorbance, dose response (AID 489014)
T2 sequence (P42574 whole entry): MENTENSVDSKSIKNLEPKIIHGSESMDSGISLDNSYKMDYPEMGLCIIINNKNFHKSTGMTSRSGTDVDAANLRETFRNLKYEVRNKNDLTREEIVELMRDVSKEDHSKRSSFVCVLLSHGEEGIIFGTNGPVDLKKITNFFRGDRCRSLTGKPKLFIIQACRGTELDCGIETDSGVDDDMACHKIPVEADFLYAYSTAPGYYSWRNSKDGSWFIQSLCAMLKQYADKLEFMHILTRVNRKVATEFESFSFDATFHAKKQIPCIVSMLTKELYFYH

[11] = target: Caspase-7 (Homo sapiens, UniProt P55210); experiment: activation of caspase-7 zymogen – biochemical, absorbance, counter-screen for procaspase-3 activator project, dose response (AID 489013)
Caspase-7, sequence (P55210 24-198 limits assumed): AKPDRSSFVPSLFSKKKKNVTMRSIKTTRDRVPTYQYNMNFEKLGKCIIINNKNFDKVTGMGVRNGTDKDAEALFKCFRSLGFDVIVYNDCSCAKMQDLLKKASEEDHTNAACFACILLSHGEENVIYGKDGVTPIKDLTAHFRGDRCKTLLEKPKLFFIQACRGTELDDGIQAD
Caspase-7, sequence (P55210 207-303 limits assumed): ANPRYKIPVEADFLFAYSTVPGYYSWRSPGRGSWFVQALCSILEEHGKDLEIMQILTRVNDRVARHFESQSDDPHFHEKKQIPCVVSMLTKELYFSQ

[12] = target: G-protein coupled receptor 55 (Homo sapiens, UniProt Q9Y2T6); experiment: inhibition of LPI-stimulated GPR55 beta-arrestin translocation – imaging, U2OS, beta-arrestin-GFP, LPI agonist, primary screen (AID 2013); format: functional;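 also: antagonist potency measured as reduced agonist-driven arrestin aggregation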
[13] = target: Serine/threonine-protein phosphatase PP1-alpha catalytic subunit (Homo sapiens, UniProt P62136); experiment: inhibition of protein phosphatase 1 activity – biochemical, fluorescence, dose response (AID 2403);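 also: phosphatase turnover of OMFP into fluorescent 3-O-methylfluorescein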
[14] = target: Serine/threonine-protein phosphatase (Homo sapiens, UniProt Q9BPW0); experiment: Counterscreen for inhibitors of PP1: fluorescence-based biochemical high throughput dose response assay to identify inhibitors of Protein Phosphatase 5 (PP5). [Related pubchem assays: 2034 (Summary (PP5 inhibitors)), 1987 (PP5 inhibitors in singlate), 2235 (PP1 inhibitors in singlate)]
[15] = cells
[16] = viability of uninfected HEp-2 cells – cell-based, HTS, cytotoxicity control for RSV inhibitor project, dose response (AID 2410); format: functional; conditions: human respiratory syncytial virus
[17] = target: Melanin-concentrating hormone receptor 1 (Homo sapiens, UniProt Q99705); experiment: Fluorescence-based counterscreen for antagonists of the G-protein coupled receptor 7 (GPR7): cell-based high throughput dose response assay to identify antagonists of the melanin-concentrating hormone receptor 1 (MCHR1).; format: functional
Melanin-concentrating hormone receptor 1, sequence (Q99705 whole entry): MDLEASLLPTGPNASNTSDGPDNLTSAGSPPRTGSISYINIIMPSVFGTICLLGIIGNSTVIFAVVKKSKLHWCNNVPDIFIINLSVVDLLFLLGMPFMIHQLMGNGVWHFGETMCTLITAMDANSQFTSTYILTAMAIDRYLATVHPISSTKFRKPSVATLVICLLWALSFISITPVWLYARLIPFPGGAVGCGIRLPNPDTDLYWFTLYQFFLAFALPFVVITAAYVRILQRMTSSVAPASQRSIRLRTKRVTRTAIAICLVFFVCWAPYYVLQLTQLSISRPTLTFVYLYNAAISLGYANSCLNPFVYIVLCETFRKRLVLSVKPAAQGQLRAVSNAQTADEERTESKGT

[18] = target: X-box-binding protein 1 (Homo sapiens, UniProt P17861); format: functional, Cricetulus griseus;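 also: confirmatory dose-response counter-screen serving a CHOP assay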
X-box-binding protein 1, sequence (P17861 whole entry): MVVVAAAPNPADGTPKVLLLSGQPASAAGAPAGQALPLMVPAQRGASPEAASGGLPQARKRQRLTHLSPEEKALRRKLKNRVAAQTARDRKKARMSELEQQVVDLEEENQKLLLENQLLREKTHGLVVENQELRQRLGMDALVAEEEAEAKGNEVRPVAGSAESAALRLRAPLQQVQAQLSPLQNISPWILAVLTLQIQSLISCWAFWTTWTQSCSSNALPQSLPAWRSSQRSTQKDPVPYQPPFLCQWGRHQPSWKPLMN

[19] = viability of HCT116 lacking mutant beta-catenin – cell-based, human colon tumor, dose response (AID 1045); format: functional;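 also: HCT116 colon tumor cells with beta catenin knocked out; cells exposed to compound for 60 hours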
[20] = viability of PTEN-deleted HCT116 cells – cell-based, HCT116 PTEN knockout, dose response (AID 1047); format: functional;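 also: HCT116 colon tumor cells with PTEN knocked out; cells exposed to compound for 60 hours before readout; potency for loss of cell viability measured by luminescence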
[21] = test system: Streptococcus; experiment: GAS UMAA2166 growth inhibition – luminescence, BacTiterGlo, counter-screen for streptokinase expression inhibitor project, dose response (AID 1915); format: functional, organism-based;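 also: potency for reduction of bacterial viability or growth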
[22] = test system: Streptococcus sp. 'group A'; experiment: Streptococcus pyogenes SK(-)GAS viability under kanamycin – luminescence, BacTiterGlo, confirmation, counter-screen for streptokinase expression inhibitor project, dose response (AID 1900); format: functional, organism-based
[23] = target: T3, Streptokinase A (Streptococcus pyogenes serotype M1, UniProt P10520); experiment: viability-normalized secreted streptokinase activity reduction – plasminogen activation absorbance, OD405, dose response (AID 1914); format: functional, Streptococcus pyogenes M1 GAS;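 also: secreted streptokinase activity via plasminogen activation per viability signal from cell pellet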
T3 sequence (P10520 whole entry): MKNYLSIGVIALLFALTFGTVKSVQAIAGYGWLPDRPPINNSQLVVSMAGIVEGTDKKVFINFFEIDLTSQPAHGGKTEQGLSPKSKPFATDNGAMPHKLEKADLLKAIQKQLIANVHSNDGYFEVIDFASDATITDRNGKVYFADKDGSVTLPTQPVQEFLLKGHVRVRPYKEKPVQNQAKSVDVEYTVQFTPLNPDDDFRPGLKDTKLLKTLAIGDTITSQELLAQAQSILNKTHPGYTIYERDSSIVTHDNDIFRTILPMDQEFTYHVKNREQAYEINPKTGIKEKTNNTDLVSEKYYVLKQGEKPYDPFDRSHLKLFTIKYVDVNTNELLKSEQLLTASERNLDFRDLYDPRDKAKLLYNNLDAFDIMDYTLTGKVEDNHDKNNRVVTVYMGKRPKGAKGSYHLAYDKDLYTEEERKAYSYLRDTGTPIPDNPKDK

[24] = target: Leucine aminopeptidase (Plasmodium falciparum 3D7, UniProt Q8IL11); experiment: P. falciparum M17LAP inhibitors, primary screen, biochemical, fluorogenic H-Leu-NHMec substrate, 1536-well (AID 1619); format: functional
Leucine aminopeptidase, sequence (Q8IL11 whole entry, the tested form may be a part): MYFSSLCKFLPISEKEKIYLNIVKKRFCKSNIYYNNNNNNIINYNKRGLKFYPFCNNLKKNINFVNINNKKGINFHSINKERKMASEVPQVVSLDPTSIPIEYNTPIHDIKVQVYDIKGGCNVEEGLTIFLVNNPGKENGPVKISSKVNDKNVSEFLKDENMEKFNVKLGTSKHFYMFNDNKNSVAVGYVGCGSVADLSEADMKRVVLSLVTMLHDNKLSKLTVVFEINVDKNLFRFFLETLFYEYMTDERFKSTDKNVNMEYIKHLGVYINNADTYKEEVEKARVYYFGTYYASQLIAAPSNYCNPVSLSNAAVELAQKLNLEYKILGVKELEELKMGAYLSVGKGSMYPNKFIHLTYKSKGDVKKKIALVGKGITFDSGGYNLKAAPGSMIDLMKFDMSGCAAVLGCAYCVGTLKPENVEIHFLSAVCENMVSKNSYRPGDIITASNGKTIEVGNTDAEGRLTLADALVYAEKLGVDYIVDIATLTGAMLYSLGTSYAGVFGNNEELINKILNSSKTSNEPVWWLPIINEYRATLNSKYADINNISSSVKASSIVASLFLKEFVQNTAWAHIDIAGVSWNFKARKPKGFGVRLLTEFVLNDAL

[25] = target: T4, Carboxy-terminal domain RNA polymerase II polypeptide A small phosphatase 1 (Homo sapiens, UniProt Q9GZU7); experiment: CTDSP1 inhibitors, concentration-response, biochemical, absorbance readout, ultra-high-throughput screen actives (AID 540297); format: functional
T4 sequence (Q9GZU7 whole entry): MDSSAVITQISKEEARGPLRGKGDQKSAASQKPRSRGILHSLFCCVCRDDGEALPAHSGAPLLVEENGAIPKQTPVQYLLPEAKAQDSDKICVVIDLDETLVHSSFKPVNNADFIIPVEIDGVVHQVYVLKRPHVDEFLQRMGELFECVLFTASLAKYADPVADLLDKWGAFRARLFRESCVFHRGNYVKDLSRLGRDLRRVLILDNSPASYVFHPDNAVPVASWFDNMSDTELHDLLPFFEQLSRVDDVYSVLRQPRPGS

[26] = target: Eukaryotic translation initiation factor 4E (Mus musculus, UniProt P63073); experiment: blockers of eIF4G binding by eIF4E – biochemical, TR-FRET, dose response (AID 855); format: functional;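 also: potency for disrupting eIF4E binding to eIF4GI seen as loss of FRET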
Eukaryotic translation initiation factor 4E, sequence (P63073 whole entry): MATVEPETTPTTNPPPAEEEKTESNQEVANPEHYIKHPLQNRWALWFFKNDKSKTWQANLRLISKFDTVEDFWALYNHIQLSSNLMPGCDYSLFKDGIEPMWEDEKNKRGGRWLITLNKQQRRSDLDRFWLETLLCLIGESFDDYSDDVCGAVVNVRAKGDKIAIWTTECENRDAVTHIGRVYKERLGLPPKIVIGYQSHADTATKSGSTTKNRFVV

[27] = target: DNA dC->dU-editing enzyme APOBEC-3G (Homo sapiens, UniProt Q9HC16); experiment: Dose Response confirmation of small molecule APOBEC3G DNA Deaminase Inhibitors via a fluorescence-based single-stranded DNA deaminase assay. [Related pubchem assays (depositor defined):AID493012, AID493028]; format: functional
[28] = Luminescence-based cell-based high throughput dose response assay to identify activators of the DAF-12 from the parasite S. stercoralis (ssDAF-12).; format: functional
[29] = target: T5, Oxysterols receptor LXR-beta (Homo sapiens, UniProt P55055); experiment: LXR agonists, Gal4 luciferase reporter, dose response, counter-screen for ssDAF-12 agonist project, cell-based, luminescence, HEK293, S. stercoralis campaign (AID 720737); format: functional; conditions: read-out: IC50 (the source's name)
T5 sequence (P55055 whole entry): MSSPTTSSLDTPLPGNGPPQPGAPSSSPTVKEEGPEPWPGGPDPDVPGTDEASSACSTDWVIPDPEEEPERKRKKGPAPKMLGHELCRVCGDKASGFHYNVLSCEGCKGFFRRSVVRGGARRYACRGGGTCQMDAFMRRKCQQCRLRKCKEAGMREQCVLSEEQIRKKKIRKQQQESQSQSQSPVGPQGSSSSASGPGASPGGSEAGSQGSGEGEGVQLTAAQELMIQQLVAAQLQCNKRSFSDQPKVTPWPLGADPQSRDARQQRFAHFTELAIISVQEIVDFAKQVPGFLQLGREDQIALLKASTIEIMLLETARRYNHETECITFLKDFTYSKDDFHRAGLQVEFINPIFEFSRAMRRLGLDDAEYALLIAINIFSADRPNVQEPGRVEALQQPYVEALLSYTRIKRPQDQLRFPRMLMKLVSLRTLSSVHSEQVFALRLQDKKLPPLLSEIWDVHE

[30] = target: Cytochrome P450 3A4 (Homo sapiens, UniProt P08684); conditions: Potency;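 also: confirmatory qHTS run detecting inhibitors and substrates of CYP3A4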

Cytochrome P450 2D6, sequence (P10635 whole entry): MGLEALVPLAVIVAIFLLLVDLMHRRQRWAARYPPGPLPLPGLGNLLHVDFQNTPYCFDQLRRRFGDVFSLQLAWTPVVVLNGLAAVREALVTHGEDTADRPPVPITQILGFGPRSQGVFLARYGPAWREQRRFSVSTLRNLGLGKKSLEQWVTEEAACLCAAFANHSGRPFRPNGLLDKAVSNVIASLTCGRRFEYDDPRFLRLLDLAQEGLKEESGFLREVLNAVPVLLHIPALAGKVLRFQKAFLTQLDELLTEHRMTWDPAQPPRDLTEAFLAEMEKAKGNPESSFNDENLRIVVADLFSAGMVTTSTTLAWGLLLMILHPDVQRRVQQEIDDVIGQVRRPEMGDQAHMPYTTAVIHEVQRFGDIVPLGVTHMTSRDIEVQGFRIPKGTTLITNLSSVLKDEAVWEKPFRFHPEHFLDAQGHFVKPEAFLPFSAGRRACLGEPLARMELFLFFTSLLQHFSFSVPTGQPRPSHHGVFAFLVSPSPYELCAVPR

## COc1ccc(NC(=O)/C=C\c2ccc(Cl)cc2)cc1
[1]
  AC50: 25.1 µM (inconclusive)

## Cc1ccc(C)c2sc(NC(=O)c3nc4ccccc4s3)nc12
[2]
  IC50: 0.869 µM (active)
[3]
  IC50: > 66.6 µM (inactive)

## Cc1cc(NC(=O)CSc2nc(C(C)C)nc3sc4c(c23)CCCC4)no1
[4]
  CC50: 38 µM (active)

## CCC(C)N=C(S)NNC(=O)c1ccc(C(C)(C)C)cc1 (stereo not drawn)
[5]
  EC50: 79.2 µM (not active)
[6]
  CC50: > 40 µM (active)

## COc1cccc(-n2nnnc2SCC(=O)Nc2ccc(C(C)=O)cc2)c1
[7]
  EC50: 17.3 µM (active)

## Cc1ccc(-c2nnc(SCC(=O)c3ccc(O)c(O)c3)n2-c2ccc(C)cc2)cc1
[8]
  IC50: > 100 µM (inactive)
[9]
  IC50: 9.54 µM (active)

## CCSc1nc2c(cnn2-c2ccc(C)cc2)c(=O)[nH]1
[7]
  EC50: 14.4 µM (active)

## CCN(CC)c1ccc(/C=N/NC(=S)NCc2ccco2)cc1
[10]
  EC50: > 85.3 µM (inactive)
[11]
  EC50: > 85.3 µM (inactive)

## COc1cc(OC)c(-n2c(C)cc(C=O)c2C)cc1Cl
[12]
  IC50: 4.72 µM (active)

## COc1ccc(CN2C(=O)Cc3c2nc(N)c2c(N)nc(N4CCCCC4)c(C#N)c32)cc1
[13]
  IC50: 11.1 µM (not active)
[14]
  IC50: > 67 µM (not active)

## Cc1nc2ccccc2nc(C)c1=NOCc1cccc(F)c1
[15]
  IC50: 35.9 µM (active)
[16]
  CC50: 41.4 µM (active)

## C#CC(CO)N(CCN(Cc1ccccc1)C(C#C)CO)Cc1ccccc1 (stereo not drawn)
[17]
  IC50: 15 µM (not active)

## CCCOc1ccc(N2C(=O)CC(SC(=NCC)Nc3cccc(F)c3)C2=O)cc1 (stereo not drawn)
[18]
  Absolute IC50 (XBP1): 10 µM

## CCCCOn1c(C)c(C(=O)OCC)c2c3nonc3ccc21
[10]
  EC50: > 85.3 µM (inactive)
[11]
  EC50: > 85.3 µM (inactive)

## Cn1c(=O)c2c(nc(N/N=C/c3cccs3)n2Cc2ccccc2)n(C)c1=O
[19]
  EC50: 84.2 µM (active)
[5]
  EC50: > 100 µM (not active)
[20]
  EC50: 56.2 µM (active)

## Cc1ccc(NC(=O)c2ccc(C#CC3(O)CCCCC3)cc2)cc1C
[21]
  EC50: > 150 µM (not active)
[22]
  EC50: > 150 µM (not active)
[18]
  Absolute IC50 (XBP1): 10 µM
[23]
  EC50: 7.36 µM (inconclusive)

## N#Cc1ccsc1NC(=O)CSc1nnc[nH]1
[24]
  IC50: 10.7 µM (active)

## c1ccc2[nH]c(-c3ccnc4ccccc34)nc2c1
[25]
  IC50: 3.66 µM (active)
[26]
  IC50: > 64 µM (inactive)

## CCc1ccccc1NC(=O)CSc1nnc[nH]1
[24]
  IC50: 34.4 µM (active)

## CCN(CC)c1ccc(NC(=O)c2ccccc2)cc1S(=O)(=O)Nc1ccccc1OC
[27]
  IC50: 30 µM (active)

## COc1ccc(CCNC(=O)CCNC(=O)c2ccc(Br)cc2)cc1OC
[26]
  IC50: > 64 µM (inactive)

## Cc1c(C(=O)Nc2nc3ccccc3[nH]2)oc2ccccc12
[2]
  IC50: 0.552 µM (active)
[28]
  IC50: > 67.5 µM (inactive)
[29]
  EC50: > 67.5 µM (inactive)
[3]
  IC50: > 66.6 µM (inactive)

## O=C1N=C(N/N=C/c2ccc3ncccc3c2)SC1Cc1ccc(SC(F)F)cc1 (stereo not drawn)
[4]
  CC50: > 40 µM (active)

## Cc1nc2ccccc2nc1Nc1cccc(Cl)c1
[15]
  IC50: 11.7 µM (active)
[16]
  CC50: 24.1 µM (active)

## O=c1cc(-c2cccc(O)c2O)oc2ccccc12
[1]
  AC50: 31.6 µM (inconclusive)
[30]
  AC50: 20 µM (inconclusive)
